Test results: paper PMC9866191, “Novel 9-Benzylaminoacridine Derivatives as Dual Inhibitors of Phosphodiesterase 5 and Topoisomerase II for the Treatment of Colon Cancer” (Molecules, 2023)

Columns and labels:
Format in all cases: cell-based
[1] = test system: panel of 60 human tumor cell lines; assay: NCI 60-cell line one-dose screen (mean); settings: mean of the 60 cell lines, single dose 10^−5 M, read-out: Mean % Growth Inhibition
Procedure: (§1) The newly synthesized compounds were screened for their in vitro anticancer activity at the Developmental Therapeutic Program (DTP) of the National Cancer Institute (NCI). The screening involved a panel of 60 human tumor cell lines consisting of 9 tissue types to screen for potential anti-cancer agents. The primary screening of submitted compounds was performed by testing a single dose (10^−5 M) in the full NCI-60 panel. The detailed % inhibition by the tested compounds against the 60 cell lines is shown in Tables S1–S3 in the Supporting Information.

[2] = test system: HCC-2998; assay: NCI-60 one-dose screen; settings: Homo sapiens; HCC-2998, Colon Cancer panel; single dose 10^−5 M; read-out: Growth inhibition %
Procedure: as §1

[3] = test system: NCI-H460; assay: NCI-60 one-dose screen; settings: Homo sapiens; NCI-H460, Non-small cell lung panel; single dose 10^−5 M; read-out: Growth inhibition %
Procedure: as §1

[4] = test system: M14; assay: NCI-60 one-dose screen; settings: Homo sapiens; M14, Melanoma panel; single dose 10^−5 M; read-out: Growth inhibition %
Procedure: as §1

[5] = test system: MOLT-4; assay: NCI-60 one-dose screen; settings: Homo sapiens; MOLT-4, Leukemia panel; single dose 10^−5 M; read-out: Growth inhibition %
Procedure: as §1

[6] = test system: UO-31; assay: NCI-60 one-dose screen; settings: Homo sapiens; UO-31, Renal Cancer panel; single dose 10^−5 M; read-out: Growth inhibition %
Procedure: as §1

[7] = test system: OVCAR-8; assay: NCI-60 one-dose screen; settings: Homo sapiens; OVCAR-8, Ovarian Cancer panel; single dose 10^−5 M; read-out: Growth inhibition %
Procedure: as §1

[8] = test system: NCI-H23; assay: NCI-60 one-dose screen; settings: Homo sapiens; NCI-H23, Non-small cell lung panel; single dose 10^−5 M; read-out: Growth inhibition %
Procedure: as §1

[9] = test system: SF-539; assay: NCI-60 one-dose screen; settings: Homo sapiens; SF-539, CNS Cancer panel; single dose 10^−5 M; read-out: Growth inhibition %
Procedure: as §1

[10] = test system: SNB-75; assay: NCI-60 one-dose screen; settings: Homo sapiens; SNB-75, CNS Cancer panel; single dose 10^−5 M; read-out: Growth inhibition %
Procedure: as §1

[11] = test system: SW-620; assay: NCI-60 one-dose screen; settings: Homo sapiens; SW-620, Colon Cancer panel; single dose 10^−5 M; read-out: Growth inhibition %
Procedure: as §1

[12] = test system: SK-MEL-5; assay: NCI-60 one-dose screen; settings: Homo sapiens; SK-MEL-5, Melanoma panel; single dose 10^−5 M; read-out: Growth inhibition %
Procedure: as §1

[13] = test system: U251; assay: NCI-60 one-dose screen; settings: Homo sapiens, U-251; U251, CNS Cancer panel; single dose 10^−5 M; read-out: Growth inhibition %
Procedure: as §1

[14] = test system: K-562; assay: NCI-60 one-dose screen; settings: Homo sapiens, K562; K-562, Leukemia panel; single dose 10^−5 M; read-out: Growth inhibition %
Procedure: as §1

[15] = test system: COLO 205; assay: NCI-60 one-dose screen; settings: Homo sapiens; COLO 205, Colon Cancer panel; single dose 10^−5 M; read-out: Growth inhibition %
Procedure: as §1

[16] = test system: UACC-257; assay: NCI-60 one-dose screen; settings: Homo sapiens; UACC-257, Melanoma panel; single dose 10^−5 M; read-out: Growth inhibition %
Procedure: as §1

[17] = test system: MDA-MB-231/ATCC; assay: NCI-60 one-dose screen; settings: Homo sapiens, Breast Cancer panel, single dose 10^−5 M, read-out: Growth inhibition %
Procedure: as §1

[18] = test system: OVCAR-4; assay: NCI-60 one-dose screen; settings: Homo sapiens; OVCAR-4, Ovarian Cancer panel; single dose 10^−5 M; read-out: Growth inhibition %
Procedure: as §1

[19] = test system: A498; assay: NCI-60 one-dose screen; settings: Homo sapiens; A498, Renal Cancer panel; single dose 10^−5 M; read-out: Growth inhibition %
Procedure: as §1

[20] = test system: HCT-116; assay: NCI-60 one-dose screen; settings: Homo sapiens, read-out: Growth inhibition %
Procedure: as §1

[21] = test system: SN12C; assay: NCI-60 one-dose screen; settings: Homo sapiens, Renal Cancer panel, single dose 10^−5 M, read-out: Growth inhibition %
Procedure: as §1

[22] = test system: RXF 393; assay: NCI-60 one-dose screen; settings: Homo sapiens; RXF 393, Renal Cancer panel; single dose 10^−5 M; read-out: Growth inhibition %
Procedure: as §1

[23] = test system: ACHN; assay: NCI-60 one-dose screen; settings: Homo sapiens, Renal Cancer panel, single dose 10^−5 M, read-out: Growth inhibition %
Procedure: as §1

[24] = test system: BT-549; assay: NCI-60 one-dose screen; settings: Homo sapiens; BT-549, Breast Cancer panel; single dose 10^−5 M; read-out: Growth inhibition %
Procedure: as §1

[25] = test system: HOP-62; assay: NCI-60 one-dose screen; settings: Homo sapiens; HOP-62, Non-small cell lung panel; single dose 10^−5 M; read-out: Growth inhibition %
Procedure: as §1

[26] = test system: SK-OV-3; assay: NCI-60 one-dose screen; settings: Homo sapiens; SK-OV-3, Ovarian Cancer panel; single dose 10^−5 M; read-out: Growth inhibition %
Procedure: as §1

[27] = test system: EKVX; assay: NCI-60 one-dose screen; settings: Homo sapiens, Non-small cell lung panel, single dose 10^−5 M, read-out: Growth inhibition %
Procedure: as §1

[28] = test system: NCI-H522; assay: NCI-60 one-dose screen; settings: Homo sapiens; NCI-H522, Non-small cell lung panel; single dose 10^−5 M; read-out: Growth inhibition %
Procedure: as §1

[29] = test system: NCI-H226; assay: NCI-60 one-dose screen; settings: Homo sapiens; NCI-H226, Non-small cell lung panel; single dose 10^−5 M; read-out: Growth inhibition %
Procedure: as §1

[30] = test system: A549/ATCC; assay: NCI-60 one-dose screen; settings: Homo sapiens, Non-small cell lung panel, single dose 10^−5 M, read-out: Growth inhibition %
Procedure: as §1

[31] = test system: MALME-3M; assay: NCI-60 one-dose screen; settings: Homo sapiens, Melanoma panel, single dose 10^−5 M, read-out: Growth inhibition %
Procedure: as §1

Compound	inhibition at 10 µM [1]	inhibition at 10 µM [2]	inhibition at 10 µM [3]	inhibition at 10 µM [4]	inhibition at 10 µM [5]	inhibition at 10 µM [6]	inhibition at 10 µM [7]	inhibition at 10 µM [8]	inhibition at 10 µM [9]	inhibition at 10 µM [10]	inhibition at 10 µM [11]	inhibition at 10 µM [12]	inhibition at 10 µM [13]	inhibition at 10 µM [14]	inhibition at 10 µM [15]	inhibition at 10 µM [16]	inhibition at 10 µM [17]	inhibition at 10 µM [18]	inhibition at 10 µM [19]	inhibition at 10 µM [20]	also measured
Clc1ccccc1CNc1c2ccccc2nc2ccccc12 [Compound 11, Acridin-9-yl-(2-chlorobenzyl)-amine]	78.4%	117%	91.2%	81.9%	94.9%	82.5%	76.2%	78.4%	93.8%	56.9%	90.4%	58.2%	76.8%	94.7%	99.5%	55.7%	71%	86.9%	106%	91.9%	inhibition at 10 µM [21]: 72.2%; inhibition at 10 µM [22]: 85%; inhibition at 10 µM [23]: 87.8%; inhibition at 10 µM [24]: 61.9%; inhibition at 10 µM [25]: 59.1%; inhibition at 10 µM [26]: 45.1%; inhibition at 10 µM [27]: 74.1%; inhibition at 10 µM [28]: 71.5%; inhibition at 10 µM [29]: 61.1%; inhibition at 10 µM [30]: 80.8%; inhibition at 10 µM [31]: 81%
COc1ccc(CNc2c3ccccc3nc3ccc(OC)cc23)cc1 [Compound 27, (2-Methoxyacridin-9-yl)-(4-methoxybenzyl)-amine]	87.9%	158%	93.5%	80.5%	100%	93.8%	74.6%	78.6%	91.5%	72.6%	84.2%	88.9%	83.9%	99.7%	151%	93.4%	76.4%	81.6%	106%	87.3%	inhibition at 10 µM [21]: 79.2%; inhibition at 10 µM [22]: 103%; inhibition at 10 µM [23]: 89.8%; inhibition at 10 µM [24]: 57%; inhibition at 10 µM [25]: 65.9%; inhibition at 10 µM [26]: 52.9%; inhibition at 10 µM [27]: 75.8%; inhibition at 10 µM [28]: 73.8%; inhibition at 10 µM [29]: 66.2%; inhibition at 10 µM [30]: 85.4%; inhibition at 10 µM [31]: 92.9%
Clc1cccc(CNc2c3ccccc3nc3ccccc23)c1 [Compound 12, Acridin-9-yl-(3-chlorobenzyl)-amine]	73%	154%	85.8%	64.5%	98.9%	84%	68.9%	68%	90.7%	31.3%	88%	33.8%	77.3%	95%	99.5%	54.6%	70.6%	81.2%	103%	91.3%	inhibition at 10 µM [21]: 76.4%; inhibition at 10 µM [22]: 81%; inhibition at 10 µM [23]: 84.3%; inhibition at 10 µM [24]: 40.9%; inhibition at 10 µM [25]: 54.5%; inhibition at 10 µM [26]: 36.1%; inhibition at 10 µM [27]: 72.8%; inhibition at 10 µM [28]: 58.3%; inhibition at 10 µM [29]: 52%; inhibition at 10 µM [30]: 72.1%; inhibition at 10 µM [31]: 55%
COc1ccc2nc3ccccc3c(NCc3ccc(C)cc3)c2c1 [Compound 26, (2-Methoxyacridin-9-yl)-(4-methylbenzyl)-amine]	79.9%	158%	90%	71.3%	99.7%	86.7%	71.3%	71.7%	89.3%	53.4%	81.5%	65.6%	84.7%	97.3%	141%	108%	66.4%	81.5%	102%	91.4%	inhibition at 10 µM [21]: 76.4%; inhibition at 10 µM [22]: 93.8%; inhibition at 10 µM [23]: 83.7%; inhibition at 10 µM [24]: 48.4%; inhibition at 10 µM [25]: 61%; inhibition at 10 µM [26]: 47.3%; inhibition at 10 µM [27]: 64.8%; inhibition at 10 µM [28]: 73.6%; inhibition at 10 µM [29]: 57.9%; inhibition at 10 µM [30]: 80.7%; inhibition at 10 µM [31]: 78%
